Reference: PubChem BioAssay AID652069 (The Scripps Research Institute Molecular Screening Center, 2013)
The source made the active and inactive calls.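 Rule for the calls: active = growth ratio of SRC-3 knockout over parental cells of 1.2 or more, reached at 10 µM or lower; inactive = the rest.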

Each molecule was assayed on HeLa SRC-3 KO vs WT growth ratio, MTT, 5 d (assay: growth ratio of SRC-3 knockout versus wild-type cells – cell-based, HeLa, zinc finger nuclease knockout, MTT, selectivity assay for SRC-1/SRC-3 inhibitor project, late-stage follow-up (AID 652069)). Settings: at 10 µM (top of the series).

| Compound | KO/WT growth ratio, higher = selective |
| --- | --- |
| Cc1nn(CC(=O)N2CCN(c3cccc(C(F)(F)F)c3)CC2)c(=O)c2cccn12 | 1.09 (inactive) |
| Cc1c(CC(=O)NCCCC(=O)O)c(=O)oc2cc3c(cc12)CCC(C)(C)O3 | 1.04 (inactive) |
| O=C(O)CN1C(=O)/C(=C\c2ccccc2OCc2ccc(Cl)cc2Cl)SC1=S | 1.02 (inactive) |
| CC(=O)/C(N=Nc1ccc2c(c1)OCCO2)=C(/C)O | 1.02 (inactive) |
| CCOC(=O)C(=CNc1ccc(NC2=NCC(C)S2)cc1)C(=O)OCC (stereo unspecified) | 1 (inactive) |
| Cc1cc(N=c2c([N+](=O)[O-])nn(-c3ccc4c(c3)OCCO4)n2O)ccc1Br | 0.974 (inactive) |
| COc1cc(N=c2c([N+](=O)[O-])nn(-c3ccc4c(c3)OCCO4)n2O)cc(OC)c1 | 1.09 (inactive) |
| O=C(CCl)N1N=C(c2ccco2)CC1c1cccs1 (stereo unspecified) | 2.05 |
| Cc1ccc(OCC(=O)c2cc(C)n(-c3ccccc3)c2C)c([N+](=O)[O-])n1 | 0.934 (inactive) |
| NS(=O)(=O)c1ccc(Nc2nc(-c3cccnc3)cs2)cc1 | 0.928 (inactive) |
| O=C(COC(=O)c1ccc[nH]c1=O)Nc1ccc(N2CCCCC2)cc1 | 0.954 (inactive) |
| Cc1cc(/C=C2\Cc3ccccc3C2=O)c(C)n1-c1ccccc1 | 1.01 (inactive) |
| Cc1ccc(N=c2c([N+](=O)[O-])nn(-c3ccc4c(c3)OCCO4)n2O)c(Cl)c1 | 1.06 (inactive) |
| Cc1ccc(N=c2c([N+](=O)[O-])nn(-c3ccc4c(c3)OCCO4)n2O)cc1F | 1.02 (inactive) |
| COc1cc2c(cc1OC)C(NC(=O)C(F)(F)F)CNC2=O (stereo unspecified) | 1.47 |
| Cc1c(Cl)cccc1N=c1c([N+](=O)[O-])nn(-c2ccc3c(c2)OCCO3)n1O | 1.03 (inactive) |
| Cc1ccc(/C=C2/SC(=S)N(CCCC(=O)Nc3ccc(O)cc3)C2=O)cc1 | 1.11 (inactive) |
| Cn1nc(C(F)(F)F)c(C#N)c1N1CCN(c2ccc(F)cc2)CC1 | 0.976 (inactive) |
| CCc1ccc(/C=C2\SC(=S)N(CCCC(=O)NCCCN3CCOCC3)C2=O)cc1 | 0.974 (inactive) |
| O=C1CCC2S/C(=C/Nc3ccc(C(F)(F)F)cc3)C(=O)N12 (stereo unspecified) | 1.02 (inactive) |
| O=C(Nc1nc2ccccc2s1)C1c2ccccc2Oc2ccccc21 | 1.05 (inactive) |
| Cc1cccc(NC(=O)c2cc(Cl)ccc2[N+](=O)[O-])c1 | 1.09 (inactive) |
| O=C(CCl)N1N=C(c2ccco2)CC1c1ccco1 (stereo unspecified) | 1.42 |
| CCOc1ccc(/C=C2\SC(=S)N(CCCC(=O)NCCCN3CCOCC3)C2=O)cc1 | 1.03 (inactive) |
| Cc1ccc(OCC(=O)c2cc(C)n(Cc3cccs3)c2C)c([N+](=O)[O-])n1 | 0.969 (inactive) |
| O=C(CCl)NC(Cc1ccccc1)c1ccccc1 (stereo unspecified) | 1.07 (inactive) |

| Compound | KO/WT growth ratio, higher = selective |
| --- | --- |
| O=C(CCCc1nc(-c2ccccc2Cl)no1)NC1CCCC1 | 1.06 (inactive) |
| O=[N+]([O-])c1nn(-c2ccc3c(c2)OCCO3)n(O)c1=Nc1ccccc1 | 0.918 (inactive) |
| Cc1cc(C)cc(N=c2c([N+](=O)[O-])nn(-c3ccc4c(c3)OCCO4)n2O)c1 | 0.985 (inactive) |
| CN(C)c1ccc(CNC(=O)CCNS(=O)(=O)c2cc(Br)cnc2N)cc1 | 1.04 (inactive) |
| COc1cc(C2c3cc4c(cc3C(OC3OC5COC(c6cccs6)OC5C(O)C3O)C3COC(=O)C23)OCO4)cc(OC)c1O (stereo unspecified) | 1.2 |
| CC(=O)N1CCN(c2ncnc3ccccc23)CC1 | 0.988 (inactive) |
| COC(=O)c1c(C)n(-c2ccc(OC)cc2)c2ccc(O)cc12 | 1.01 (inactive) |
| CCc1ccc(N=c2c([N+](=O)[O-])nn(-c3ccc4c(c3)OCCO4)n2O)cc1 | 0.982 (inactive) |
| NC(=S)NN=C1CCSc2ccc(Cl)cc21 | 1.09 (inactive) |
| NC(=O)c1sc2nc3c(c(-c4ccco4)c2c1N)CCC3 | 1.23 |
| CC(C)n1c(SCC(=O)Nc2nc3c(s2)CCCC3)nc2c1c(=O)n(C)c(=O)n2C | 1.03 (inactive) |
| O=[N+]([O-])c1cccc2c1ccc1ncccc12 | 1.09 (inactive) |
| Cc1ccc(/C=C2\SC(=S)N(CCCC(=O)NC3CCCC3)C2=O)cc1 | 0.962 (inactive) |
| CCCCC(=O)Nc1cccn2ncnc12 | 0.954 (inactive) |
| O=C(Nc1cccnc1)c1ccc(C(=O)Nc2cccnc2)cc1 | 1.07 (inactive) |
| O=C(NC(NC(=S)N1CCOCC1)C(Cl)(Cl)Cl)c1ccc(Cl)cc1 (stereo unspecified) | 1.05 (inactive) |
| O=C(Nc1nc(-c2ccccn2)cs1)c1cccc(S(=O)(=O)N2CCOCC2)c1 | 1.23 |
| Cc1c(/C(O)=C2/C(=O)C(=O)N(Cc3cccnc3)C2c2ccccn2)cnn1-c1ccccc1 (stereo unspecified) | 0.966 (inactive) |
| CC(C)N(c1ccccc1)c1ccc(NC(=O)CCl)cc1 | 1.07 (inactive) |
| CCC(=O)N1CCN(c2ccnc3cc(Cl)ccc23)CC1 | 1.11 (inactive) |
| S=C(Nc1ccccc1)Nc1ccc(OCc2ccc(Cl)cc2Cl)cc1 | 1.05 (inactive) |
| S=C(c1ccc(-c2ccccc2)cc1)N1CCOCC1 | 0.918 (inactive) |
| COc1ccc(/C=C2/SC(=S)N(CCC(=O)O)C2=O)cc1 | 1.07 (inactive) |
| O=[N+]([O-])c1nn(-c2ccc3c(c2)OCCO3)n(O)c1=Nc1ccc(Cl)cc1 | 0.995 (inactive) |
| c1ccc(-c2nnc(-c3ccccn3)nc2NC2CCCCC2)cc1 | 1.01 (inactive) |
